{"source": "patent US8546451B2", "about": "(priority 2005, dated 2013)", "key": {"[1]": {"target": "T1, glucocorticoid receptor (GR) (Rattus norvegicus (Rat), UniProt P06536)", "T1 sequence (P06536 whole entry, canonical isoform)": "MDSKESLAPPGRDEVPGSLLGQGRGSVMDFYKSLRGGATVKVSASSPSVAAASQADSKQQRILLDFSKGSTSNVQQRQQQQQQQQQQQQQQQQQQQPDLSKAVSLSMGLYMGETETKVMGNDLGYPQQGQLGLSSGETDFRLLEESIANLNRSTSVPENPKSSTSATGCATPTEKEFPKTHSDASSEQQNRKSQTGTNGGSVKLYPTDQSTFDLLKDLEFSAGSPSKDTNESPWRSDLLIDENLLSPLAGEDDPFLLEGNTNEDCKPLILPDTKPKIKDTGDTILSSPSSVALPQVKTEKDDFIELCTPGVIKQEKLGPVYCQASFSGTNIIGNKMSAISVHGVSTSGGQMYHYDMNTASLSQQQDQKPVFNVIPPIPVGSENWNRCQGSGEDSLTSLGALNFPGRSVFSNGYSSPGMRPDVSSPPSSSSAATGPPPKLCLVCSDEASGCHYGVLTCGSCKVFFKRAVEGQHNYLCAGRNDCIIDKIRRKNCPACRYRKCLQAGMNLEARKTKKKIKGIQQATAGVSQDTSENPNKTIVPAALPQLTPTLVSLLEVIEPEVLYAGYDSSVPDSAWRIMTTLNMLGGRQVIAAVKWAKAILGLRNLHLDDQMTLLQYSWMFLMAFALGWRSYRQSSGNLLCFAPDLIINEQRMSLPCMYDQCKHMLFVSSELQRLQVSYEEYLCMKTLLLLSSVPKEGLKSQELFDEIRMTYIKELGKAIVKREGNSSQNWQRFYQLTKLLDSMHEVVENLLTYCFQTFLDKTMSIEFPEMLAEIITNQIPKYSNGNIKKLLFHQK", "assay": "Cross-reactivity transcriptional activation assay, GR", "type": "cell-based", "details": "agonist and antagonist modes", "from_the_text": "(§1) Compound IV was screened for cross-reactivity against rat isoforms of glucocorticoid receptor (GR), mineralocorticoids receptor (MR), progesterone receptor (PR), androgen receptor (AR) and human isoforms of farnesoid X receptor (FXR), liver X receptor (LXR), peroxisome proliferator-activated receptors (PPAR-α and PPAR-γ), and retinoid X receptor (RXR-α) in both agonist and antagonist modes in transcriptional activation assays."}, "[2]": {"target": "farnesoid X receptor (FXR) (Homo sapiens (Human), UniProt Q96RI1)", "sequence (Q96RI1 whole entry)": "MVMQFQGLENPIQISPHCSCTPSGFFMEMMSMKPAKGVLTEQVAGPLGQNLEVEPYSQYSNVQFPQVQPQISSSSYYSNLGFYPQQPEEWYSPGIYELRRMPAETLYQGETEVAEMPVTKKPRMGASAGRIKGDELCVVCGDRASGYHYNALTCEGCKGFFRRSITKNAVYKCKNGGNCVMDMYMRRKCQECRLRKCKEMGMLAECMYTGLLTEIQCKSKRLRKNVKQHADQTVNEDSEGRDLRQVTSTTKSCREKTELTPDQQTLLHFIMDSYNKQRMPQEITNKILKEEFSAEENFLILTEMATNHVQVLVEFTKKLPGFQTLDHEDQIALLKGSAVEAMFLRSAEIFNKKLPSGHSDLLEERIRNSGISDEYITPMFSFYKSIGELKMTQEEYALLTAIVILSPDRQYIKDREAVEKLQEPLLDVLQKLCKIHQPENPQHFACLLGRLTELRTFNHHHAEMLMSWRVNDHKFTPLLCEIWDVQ", "assay": "Cross-reactivity transcriptional activation assay, FXR", "type": "cell-based", "details": "agonist and antagonist modes", "from_the_text": "as §1"}, "[3]": {"target": "T1, glucocorticoid receptor (GR)", "assay": "DES versus Compound IV, GR crossreaction (FIG. 12A)", "type": "cell-based"}, "androgen receptor (AR)": {"target": "androgen receptor (AR) (Rattus norvegicus (Rat), UniProt P15207)", "sequence (P15207 whole entry S389L)": "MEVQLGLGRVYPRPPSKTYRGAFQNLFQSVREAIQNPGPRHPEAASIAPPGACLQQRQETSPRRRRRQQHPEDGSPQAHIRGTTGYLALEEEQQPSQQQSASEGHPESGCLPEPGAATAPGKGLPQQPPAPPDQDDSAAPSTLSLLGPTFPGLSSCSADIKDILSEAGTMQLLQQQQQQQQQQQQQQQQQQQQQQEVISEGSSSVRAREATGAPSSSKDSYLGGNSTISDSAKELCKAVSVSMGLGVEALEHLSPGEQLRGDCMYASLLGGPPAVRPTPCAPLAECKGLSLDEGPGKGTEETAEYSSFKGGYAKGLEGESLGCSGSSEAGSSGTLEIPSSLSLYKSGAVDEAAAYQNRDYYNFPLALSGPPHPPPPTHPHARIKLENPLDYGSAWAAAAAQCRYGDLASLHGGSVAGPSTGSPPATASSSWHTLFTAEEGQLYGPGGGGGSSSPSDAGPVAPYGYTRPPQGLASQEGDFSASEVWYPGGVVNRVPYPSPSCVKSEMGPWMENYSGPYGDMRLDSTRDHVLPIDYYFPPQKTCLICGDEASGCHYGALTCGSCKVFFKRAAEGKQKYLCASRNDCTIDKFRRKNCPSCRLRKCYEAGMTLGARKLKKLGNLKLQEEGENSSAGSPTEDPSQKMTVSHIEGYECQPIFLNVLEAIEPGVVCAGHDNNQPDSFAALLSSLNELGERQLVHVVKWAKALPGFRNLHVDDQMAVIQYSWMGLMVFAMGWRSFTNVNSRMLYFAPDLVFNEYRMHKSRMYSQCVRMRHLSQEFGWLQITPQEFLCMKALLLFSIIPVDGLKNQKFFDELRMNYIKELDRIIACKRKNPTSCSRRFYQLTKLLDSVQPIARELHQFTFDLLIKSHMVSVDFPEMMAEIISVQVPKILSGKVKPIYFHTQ", "assay": "DES versus Compound IV, AR crossreaction (FIG. 12B)", "type": "cell-based"}, "[4]": {"test_system": "serum testosterone and total androgens", "assay": "Testosterone suppression in Cynomolgus monkeys", "type": "in vivo", "details": "30 mg/kg oral daily"}, "serum testosterone": {"test_system": "serum testosterone", "assay": "Recovery of testosterone levels following suppression in rats", "type": "in vivo, Sprague-Dawley rats", "from_the_text": "Thirty-five (35) male Sprague-Dawley rats weighing approximately 200 g were maintained on a 12-h light/dark cycle with food (2016 Teklad Global 16% Protein Rodent Diet, Harlan, Madison, Wis.) and water available ad libitum. The animal protocol was reviewed and approved by the Institutional Animal Care and Use Committee of the University of Tennessee.\nThe test article for this study was weighed and dissolved in PEG 300 (100%) (Acros Organics, NJ) to prepare the appropriate dose formulations. Animals were randomly assigned to one of the ten treatment groups (n =5 animals/group). The animals were housed in groups of 2 to 3 animals per cage. Group 1 was sacrificed at the initiation of the study (Day 1) for determination of baseline testosterone levels in intact animals. Groups 2-7 received daily doses of 1, 3, or 30 mg/kg via oral gavage (˜200 uL) for three days. Groups 2, 3, and 4 were sacrificed on Day 4 to measure maximal testosterone suppression. Groups 5, 6, and 7 were allowed to recover for 14 days with a drug free washout period."}, "CYP1A2": {"target": "CYP1A2 (Homo sapiens (Human), UniProt P05177)", "sequence (P05177 whole entry)": "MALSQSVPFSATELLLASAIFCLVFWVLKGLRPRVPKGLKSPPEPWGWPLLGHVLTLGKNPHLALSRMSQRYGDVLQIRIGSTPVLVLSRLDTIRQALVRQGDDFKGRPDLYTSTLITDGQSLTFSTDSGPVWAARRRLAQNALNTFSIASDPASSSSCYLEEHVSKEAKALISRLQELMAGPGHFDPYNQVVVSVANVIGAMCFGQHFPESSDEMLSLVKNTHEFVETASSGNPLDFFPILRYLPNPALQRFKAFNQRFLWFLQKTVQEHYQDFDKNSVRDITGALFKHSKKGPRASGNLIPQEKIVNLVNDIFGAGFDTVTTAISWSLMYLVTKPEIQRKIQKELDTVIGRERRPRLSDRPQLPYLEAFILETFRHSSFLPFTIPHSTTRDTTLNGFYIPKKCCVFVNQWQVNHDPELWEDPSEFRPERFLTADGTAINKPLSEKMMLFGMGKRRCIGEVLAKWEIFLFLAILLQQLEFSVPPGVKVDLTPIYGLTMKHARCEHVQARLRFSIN", "assay": "CYP450 inhibition in vitro, CYP1A2", "type": "in vitro ADME", "details": "at concentrations <30 μM"}, "CYP3A4/5": {"test_system": "CYP3A4/5", "assay": "CYP450 inhibition in vitro, CYP3A4/5", "type": "in vitro ADME", "details": "at concentrations <30 μM"}, "CYP2C9": {"target": "CYP2C9 (Homo sapiens (Human), UniProt P11712)", "sequence (P11712 whole entry)": "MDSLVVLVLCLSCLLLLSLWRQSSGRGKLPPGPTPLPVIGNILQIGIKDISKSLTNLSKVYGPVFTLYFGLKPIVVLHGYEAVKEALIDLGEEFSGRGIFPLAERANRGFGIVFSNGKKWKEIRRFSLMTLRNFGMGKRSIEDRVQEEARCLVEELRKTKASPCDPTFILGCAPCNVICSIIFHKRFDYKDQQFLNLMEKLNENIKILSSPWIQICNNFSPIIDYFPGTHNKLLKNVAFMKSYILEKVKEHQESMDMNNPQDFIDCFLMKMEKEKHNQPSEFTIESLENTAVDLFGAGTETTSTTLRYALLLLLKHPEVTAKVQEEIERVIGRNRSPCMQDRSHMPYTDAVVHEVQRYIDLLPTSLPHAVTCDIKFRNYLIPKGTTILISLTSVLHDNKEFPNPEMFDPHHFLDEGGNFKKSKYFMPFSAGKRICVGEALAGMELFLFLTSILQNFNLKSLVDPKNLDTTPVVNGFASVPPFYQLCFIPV", "assay": "CYP450 inhibition in vitro, CYP2C9", "type": "in vitro ADME"}, "hERG channel": {"target": "hERG channel (Homo sapiens (Human), UniProt Q12809)", "sequence (Q12809 whole entry)": "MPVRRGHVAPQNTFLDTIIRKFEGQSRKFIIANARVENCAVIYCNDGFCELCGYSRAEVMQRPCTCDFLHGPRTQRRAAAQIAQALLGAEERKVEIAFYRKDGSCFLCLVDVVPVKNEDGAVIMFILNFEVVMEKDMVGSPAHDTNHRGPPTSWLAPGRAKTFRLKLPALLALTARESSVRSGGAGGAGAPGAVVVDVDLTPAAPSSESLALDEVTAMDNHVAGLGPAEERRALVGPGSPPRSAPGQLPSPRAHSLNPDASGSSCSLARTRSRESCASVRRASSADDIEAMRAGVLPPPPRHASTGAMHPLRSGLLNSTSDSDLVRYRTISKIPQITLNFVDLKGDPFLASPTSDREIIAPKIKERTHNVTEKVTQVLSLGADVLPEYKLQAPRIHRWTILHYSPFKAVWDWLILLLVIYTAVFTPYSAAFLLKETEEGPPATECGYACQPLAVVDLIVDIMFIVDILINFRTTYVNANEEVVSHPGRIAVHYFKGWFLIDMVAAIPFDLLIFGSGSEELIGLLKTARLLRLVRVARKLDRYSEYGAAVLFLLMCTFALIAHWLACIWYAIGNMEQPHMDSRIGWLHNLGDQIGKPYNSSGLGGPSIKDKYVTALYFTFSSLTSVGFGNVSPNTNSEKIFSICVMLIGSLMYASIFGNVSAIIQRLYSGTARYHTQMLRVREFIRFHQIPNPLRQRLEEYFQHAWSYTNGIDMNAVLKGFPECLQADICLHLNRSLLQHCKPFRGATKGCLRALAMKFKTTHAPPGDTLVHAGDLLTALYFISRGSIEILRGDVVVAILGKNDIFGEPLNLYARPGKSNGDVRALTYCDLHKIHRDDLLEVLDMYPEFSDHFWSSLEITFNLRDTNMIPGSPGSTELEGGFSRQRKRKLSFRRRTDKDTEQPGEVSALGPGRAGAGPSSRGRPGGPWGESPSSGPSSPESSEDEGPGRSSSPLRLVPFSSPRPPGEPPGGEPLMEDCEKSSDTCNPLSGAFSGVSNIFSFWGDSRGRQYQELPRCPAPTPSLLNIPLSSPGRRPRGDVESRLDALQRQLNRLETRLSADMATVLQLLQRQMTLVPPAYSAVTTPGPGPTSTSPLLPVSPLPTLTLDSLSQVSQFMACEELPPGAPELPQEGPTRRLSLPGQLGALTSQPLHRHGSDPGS", "assay": "hERG channel inhibition in vitro", "type": "cell-based", "method": "Compound IV exerts little or no in vitro inhibitory effects (IC50≧300 μM) on the hERG channel."}, "telemetered dogs": {"test_system": "telemetered dogs", "assay": "Hemodynamic and cardiac function in telemetered dogs", "type": "in vivo", "details": "any dose (up to 300 mg/kg)"}, "dogs": {"test_system": "dogs", "assay": "Single and repeated oral administration toxicity in dogs", "type": "in vivo", "from_the_text": "Compound IV was well-tolerated by rats and dogs after single and repeated oral administration (up to 28 days)."}}, "note": "pIC50, pKi: −log10 of the molar value."}
{"smiles": "O=C(c1ccc(O)c(F)c1)N(c1ccc(O)cc1)c1ccc(F)cc1", "note": "[Compound IV, 3-fluoro-N-(4-fluorophenyl)-4-hydroxy-N-(4-hydroxyphenyl)benzamide]", "values": [{"measurement": "agonist or antagonist activity", "setting": "[1]", "result": "did not display any agonist or antagonist activity"}, {"measurement": "agonist or antagonist activity", "setting": "[2]", "result": "did not display any agonist or antagonist activity"}, {"measurement": "crossreaction with GR", "setting": "[3]", "result": "did not"}, {"measurement": "crossreaction with AR", "setting": "androgen receptor (AR)", "result": "did not"}, {"measurement": "Testosterone Percent reduction from baseline", "setting": "[4]; Animal 1, Day 2", "result": 16, "unit": "%"}, {"measurement": "Testosterone Serum level", "setting": "[4]; Animal 1, Day 2", "result": 937, "unit": "pg/mL"}, {"measurement": "Total Androgens Percent reduction from baseline", "setting": "[4]; Animal 1, Day 2", "result": 37, "unit": "%"}, {"measurement": "Total Androgens Serum level", "setting": "[4]; Animal 1, Day 2", "result": 1178, "unit": "pg/mL"}, {"measurement": "Testosterone Percent reduction from baseline", "setting": "[4]; Animal 1, Day 3", "result": 30, "unit": "%"}, {"measurement": "Testosterone Serum level", "setting": "[4]; Animal 1, Day 3", "result": 784, "unit": "pg/mL"}, {"measurement": "Total Androgens Percent reduction from baseline", "setting": "[4]; Animal 1, Day 3", "result": 42, "unit": "%"}, {"measurement": "Total Androgens Serum level", "setting": "[4]; Animal 1, Day 3", "result": 1078, "unit": "pg/mL"}, {"measurement": "Testosterone Percent reduction from baseline", "setting": "[4]; Animal 1, Day 4", "result": 51, "unit": "%"}, {"measurement": "Testosterone Serum level", "setting": "[4]; Animal 1, Day 4", "result": 552, "unit": "pg/mL"}, {"measurement": "Total Androgens Percent reduction from baseline", "setting": "[4]; Animal 1, Day 4", "result": 47, "unit": "%"}, {"measurement": "Total Androgens Serum level", "setting": "[4]; Animal 1, Day 4", "result": 988, "unit": "pg/mL"}, {"measurement": "Testosterone Percent reduction from baseline", "setting": "[4]; Animal 1, Day 5", "result": 64, "unit": "%"}, {"measurement": "Testosterone Serum level", "setting": "[4]; Animal 1, Day 5", "result": 403, "unit": "pg/mL"}, {"measurement": "Total Androgens Percent reduction from baseline", "setting": "[4]; Animal 1, Day 5", "result": 48, "unit": "%"}, {"measurement": "Total Androgens Serum level", "setting": "[4]; Animal 1, Day 5", "result": 966, "unit": "pg/mL"}, {"measurement": "Testosterone Percent reduction from baseline", "setting": "[4]; Animal 1, Day 6", "result": 58, "unit": "%"}, {"measurement": "Testosterone Serum level", "setting": "[4]; Animal 1, Day 6", "result": 474, "unit": "pg/mL"}, {"measurement": "Total Androgens Percent reduction from baseline", "setting": "[4]; Animal 1, Day 6", "result": 56, "unit": "%"}, {"measurement": "Total Androgens Serum level", "setting": "[4]; Animal 1, Day 6", "result": 819, "unit": "pg/mL"}, {"measurement": "Testosterone Percent reduction from baseline", "setting": "[4]; Animal 3, Day 2", "result": 22, "unit": "%"}, {"measurement": "Testosterone Serum level", "setting": "[4]; Animal 3, Day 2", "result": 479, "unit": "pg/mL"}, {"measurement": "Total Androgens Percent reduction from baseline", "setting": "[4]; Animal 3, Day 2", "result": 48, "unit": "%"}, {"measurement": "Total Androgens Serum level", "setting": "[4]; Animal 3, Day 2", "result": 847, "unit": "pg/mL"}, {"measurement": "Testosterone Percent reduction from baseline", "setting": "[4]; Animal 3, Day 3", "result": 29, "unit": "%"}, {"measurement": "Testosterone Serum level", "setting": "[4]; Animal 3, Day 3", "result": 437, "unit": "pg/mL"}, {"measurement": "Total Androgens Percent reduction from baseline", "setting": "[4]; Animal 3, Day 3", "result": 52, "unit": "%"}, {"measurement": "Total Androgens Serum level", "setting": "[4]; Animal 3, Day 3", "result": 786, "unit": "pg/mL"}, {"measurement": "Testosterone Percent reduction from baseline", "setting": "[4]; Animal 3, Day 4", "result": 33, "unit": "%"}, {"measurement": "Testosterone Serum level", "setting": "[4]; Animal 3, Day 4", "result": 415, "unit": "pg/mL"}, {"measurement": "Total Androgens Percent reduction from baseline", "setting": "[4]; Animal 3, Day 4", "result": 44, "unit": "%"}, {"measurement": "Total Androgens Serum level", "setting": "[4]; Animal 3, Day 4", "result": 924, "unit": "pg/mL"}, {"measurement": "Testosterone Percent reduction from baseline", "setting": "[4]; Animal 3, Day 5", "result": 55, "unit": "%"}, {"measurement": "Testosterone Serum level", "setting": "[4]; Animal 3, Day 5", "result": 276, "unit": "pg/mL"}, {"measurement": "Total Androgens Percent reduction from baseline", "setting": "[4]; Animal 3, Day 5", "result": 60, "unit": "%"}, {"measurement": "Total Androgens Serum level", "setting": "[4]; Animal 3, Day 5", "result": 664, "unit": "pg/mL"}, {"measurement": "Testosterone Percent reduction from baseline", "setting": "[4]; Animal 3, Day 6", "result": 64, "unit": "%"}, {"measurement": "Testosterone Serum level", "setting": "[4]; Animal 3, Day 6", "result": 221, "unit": "pg/mL"}, {"measurement": "Total Androgens Percent reduction from baseline", "setting": "[4]; Animal 3, Day 6", "result": 56, "unit": "%"}, {"measurement": "Total Androgens Serum level", "setting": "[4]; Animal 3, Day 6", "result": 726, "unit": "pg/mL"}, {"measurement": "serum testosterone levels", "setting": "serum testosterone; 1 mg/kg oral for three days, after 14 day recovery", "result": "3.3 ± 1.92", "unit": "ng/mL"}, {"measurement": "serum testosterone suppression", "setting": "serum testosterone; 1 mg/kg oral for three days, no recovery", "result": "No significant suppression"}, {"measurement": "serum testosterone levels", "setting": "serum testosterone; 3 mg/kg oral for three days, after 14 day recovery", "result": "3.00 ± 1.06", "unit": "ng/mL"}, {"measurement": "serum testosterone levels", "setting": "serum testosterone; 3 mg/kg oral for three days, no recovery, baseline 6.4±3.1", "result": "1.47 ± 0.26", "unit": "ng/mL"}, {"measurement": "serum testosterone levels", "setting": "serum testosterone; 30 mg/kg oral for three days, after 14 day recovery", "result": "3.8 ± 1.72", "unit": "ng/mL"}, {"measurement": "serum testosterone levels", "setting": "serum testosterone; 30 mg/kg oral for three days, no recovery, baseline 6.4±3.1", "result": "1.62 ± 0.49", "unit": "ng/mL"}, {"measurement": "reversibility of pharmacologic castration", "setting": "serum testosterone; rats, within 14 days of recovery", "result": "reversible"}, {"measurement": "inhibition of CYP1A2", "setting": "CYP1A2", "result": "does not inhibit"}, {"measurement": "inhibition of CYP3A4/5", "setting": "CYP3A4/5", "result": "does not inhibit"}, {"measurement": "pKi", "setting": "CYP2C9", "result": 5.10}, {"measurement": "pIC50", "setting": "hERG channel", "result": "≤ 3.52"}, {"measurement": "hemodynamic or cardiac function (blood pressure, heart rate, electrocardiogram morphology or QT intervals)", "setting": "telemetered dogs", "result": "did not affect"}, {"measurement": "tolerability", "setting": "dogs; dogs, single and repeated oral administration (up to 28 days)", "result": "well-tolerated"}, {"measurement": "pathologic changes in kidney, liver, heart and other non-target-related organs", "setting": "dogs; dogs, up to 28 days oral", "result": "no pathologic changes observed"}, {"measurement": "toxicity findings", "setting": "dogs; male or female dogs, oral, up to 28 days", "result": "no serious physical signs, body weight effects, clinical pathology changes, ophthalmologic, electrocardiographic, or histopathologic changes"}]}
